The values below come from US6716833B2, “Acetylenic α-amino acid-based sulfonamide hydroxamic acid tace inhibitors” (priority 1999, dated 2004).

Structures are written as SMILES. Structures can show the parent of a compound that is named as a salt. Where two headings read alike, the source gives them in different places.

Common to all, as to type: biochemical
The target in test [1] is T1, MMP-1 (Homo sapiens, UniProt P03956).
T1 sequence (P03956 100-469): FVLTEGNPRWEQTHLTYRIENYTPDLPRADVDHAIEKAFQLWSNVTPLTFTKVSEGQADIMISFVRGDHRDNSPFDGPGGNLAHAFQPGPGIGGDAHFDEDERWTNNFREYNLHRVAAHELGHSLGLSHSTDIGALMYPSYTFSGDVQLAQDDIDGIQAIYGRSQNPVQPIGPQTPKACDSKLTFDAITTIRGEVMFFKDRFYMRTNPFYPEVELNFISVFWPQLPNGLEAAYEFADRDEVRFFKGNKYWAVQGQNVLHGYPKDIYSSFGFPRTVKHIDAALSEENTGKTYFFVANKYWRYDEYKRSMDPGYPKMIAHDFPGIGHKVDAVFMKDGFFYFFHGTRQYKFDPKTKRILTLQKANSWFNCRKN
Briefly: MMP-1 inhibition (thiopeptide or fluorescent peptide substrate). Conditions: read-out: MMP-1 IC50.

Test [2] addresses MMP-9 (Homo sapiens, UniProt P14780). Briefly: MMP-9 inhibition (thiopeptide or fluorescent peptide substrate). Conditions: read-out: MMP-9 IC50.
Test [3] deals with TNF-α converting enzyme (TACE) (Homo sapiens, UniProt P78536). Briefly: TACE inhibition (fluorescent peptidyl substrate). Conditions: read-out: TACE IC50.
Chain of TNF-α converting enzyme (TACE) (P78536 215-824, species assumed): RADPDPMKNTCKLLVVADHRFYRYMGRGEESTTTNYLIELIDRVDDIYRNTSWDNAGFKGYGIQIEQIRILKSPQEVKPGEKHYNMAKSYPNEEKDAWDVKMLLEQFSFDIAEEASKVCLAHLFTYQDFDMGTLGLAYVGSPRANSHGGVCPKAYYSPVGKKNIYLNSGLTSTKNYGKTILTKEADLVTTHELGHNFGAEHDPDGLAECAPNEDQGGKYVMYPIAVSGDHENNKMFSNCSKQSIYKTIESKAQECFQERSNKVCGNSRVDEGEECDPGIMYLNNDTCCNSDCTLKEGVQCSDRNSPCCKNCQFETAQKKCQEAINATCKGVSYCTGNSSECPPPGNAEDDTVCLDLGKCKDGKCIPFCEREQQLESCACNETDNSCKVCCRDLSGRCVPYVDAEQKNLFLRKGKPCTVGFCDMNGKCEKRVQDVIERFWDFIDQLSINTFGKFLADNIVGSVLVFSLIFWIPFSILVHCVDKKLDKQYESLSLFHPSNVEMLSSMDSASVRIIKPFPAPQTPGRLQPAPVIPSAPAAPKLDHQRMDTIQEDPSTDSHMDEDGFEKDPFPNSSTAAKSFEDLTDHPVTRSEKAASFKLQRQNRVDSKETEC
The target in test [4] is MMP-13 (Homo sapiens, UniProt P45452). Put plainly: MMP-13 inhibition (thiopeptide or fluorescent peptide substrate). Conditions: read-out: MMP-13 IC50.

Chain of MMP-9 (P14780 94-707): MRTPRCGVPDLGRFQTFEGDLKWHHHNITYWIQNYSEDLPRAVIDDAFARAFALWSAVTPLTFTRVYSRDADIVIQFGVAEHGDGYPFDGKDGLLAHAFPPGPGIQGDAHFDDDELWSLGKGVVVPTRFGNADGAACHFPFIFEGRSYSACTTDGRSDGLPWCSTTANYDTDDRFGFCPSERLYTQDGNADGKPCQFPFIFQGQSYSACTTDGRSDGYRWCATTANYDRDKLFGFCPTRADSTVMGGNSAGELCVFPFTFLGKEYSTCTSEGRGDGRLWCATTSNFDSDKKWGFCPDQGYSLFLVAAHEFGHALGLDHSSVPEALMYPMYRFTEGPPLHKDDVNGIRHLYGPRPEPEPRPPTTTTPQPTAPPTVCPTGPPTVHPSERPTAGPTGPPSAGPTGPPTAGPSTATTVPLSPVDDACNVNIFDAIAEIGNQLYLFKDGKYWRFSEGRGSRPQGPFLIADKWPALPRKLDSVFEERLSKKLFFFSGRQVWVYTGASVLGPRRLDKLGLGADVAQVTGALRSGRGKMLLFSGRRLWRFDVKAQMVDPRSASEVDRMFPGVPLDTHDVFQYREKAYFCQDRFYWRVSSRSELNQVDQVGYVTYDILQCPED

For the molecule `CC1(C)SCCN(S(=O)(=O)c2ccc(OCC#CCCN)cc2)C1C(=O)NO` (stereo not shown) [Example 246, 4-({4-[(5-Amino-2-pentynyl)oxy]phenyl}sulfonyl)-N-hydroxy-2,2-dimethyl-3-thiomorpholine Carboxamide], the IC50 in test [1] (Table 10) stood at 1050 nM; in test [2] (Table 10) it was 41 nM; in test [3] (Table 10), 138 nM; in test [4] (Table 10), 27 nM.

In the case of `CC#CCOc1ccc(S(=O)(=O)N(CCCc2ccccc2)C(C(=O)NO)C(C)C)cc1` (stereo not shown) [Example 111, 2-[(4-but-2-ynyloxy-Benzenesulfonyl)-(3-phenyl-propyl)-amino]-N-hydroxy-3-methyl-butyramide], the IC50 in test [1] turned out to be 308 nM; in test [2], 1420 nM; in test [3] it was 481 nM; in test [4] it was 303 nM.

For the molecule `CC#CCOc1ccc(S(=O)(=O)N(Cc2cccnc2)C(C(=O)NO)C(C)C)cc1` (stereo not shown) [Example 114, 2-[(4-but-2-ynyloxy-Benzenesulfonyl)-pyridin-3-ylmethyl-amino]-N-hydroxy-3-methyl-butyramide], the IC50 was determined as 236 nM in test [1], 193 nM in test [2], 93 nM in test [3] and 94 nM in test [4].

In the case of `CC#CCOc1ccc(S(=O)(=O)N2C[C@@H](CN)SC(C)(C)[C@@H]2C(=O)NO)cc1` [Example 275, (3S,6R)-trans-6-(Aminomethyl)-4-{[4-(2-butynyloxy)phenyl]sulfonyl}-N-hydroxy-2,2-dimethyl-3-thiomorpholinecarboxamide Hydrochloride], the IC50 in test [1] (Table 11) came to 30 nM; in test [2] (Table 11) it was 22 nM; in test [3] (Table 11), 128 nM; in test [4] (Table 11) it was 16 nM.

Take `CC#CCOc1ccc(S(=O)(=O)NC(C(=O)NO)c2ccc(O)cc2)cc1` (stereo not shown) [Example 176, 2-({[4-(2-Butynyloxy)phenyl]sulfonyl}amino)-N-hydroxy-2-(4-hydroxyphenyl)acetamide]: the IC50 in test [1] was roughly 10000 nM; in test [2], 898 nM; in test [3] it was 4 nM; in test [4], 103 nM.

On to `C#CCOc1ccc(C(NS(=O)(=O)c2ccc(OCC#CC)cc2)C(=O)NO)cc1` (stereo not shown) [Example 177, 2-({[4-(2-Butynyloxy)phenyl]sulfonyl}amino)-N-hydroxy-2-[4(2-propynyloxy)phenyl]acetamide], for which the 50% inhibitory concentration (IC50) in test [1] was less than 10000 nM; in test [2], 310 nM; in test [3], 4.8 nM; in test [4], 57 nM.

As to `CC#CCOc1ccc(S(=O)(=O)N(C)[C@@H](C(=O)NO)c2ccc(O[C@H]3CCN(C(=O)OC(C)(C)C)C3)cc2)cc1` [Example 189, tert-Butyl(3S)-3-{4-[(1R)-1-[{[4-(2-butynyloxy)phenyl]sulfonyl}(methyl)amino]-2-(hydroxyamino)-2-oxoethyl]phenoxy}-1-pyrrolidinecarboxylate], the half-inhibitory concentration (IC50) in test [1] was 2440 nM; in test [2], 297 nM; in test [3], 231 nM; in test [4] it was 120 nM.

Take `CC#CCOc1ccc(S(=O)(=O)N(C)[C@@H](C(=O)NO)C2CCC(N(CC)CC)CC2)cc1` (stereo partly drawn) [Example 128, ((2R)-{[4-(2-Butynyloxy)phenyl]sulfonyl}(methyl)amino)[(4-diethylamino)cyclohexyl]-N-hydroxyethamide]: the IC50 was 2370 nM in test [1], 184 nM in test [2], 376 nM in test [3] and 212 nM in test [4].

With `CC#CCOc1ccc(S(=O)(=O)N(Cc2cccnc2)C(C)C(=O)NO)cc1` (stereo not shown) [Example 33, 2-[(4-but-2-ynyloxy-Benzenesulfonyl)-pyridin-3-ylmethyl-amino]-N-hydroxy-propionamide Hydrochloride], the IC50 in test [1] came out at 239 nM; in test [2] it was 65 nM; in test [3], 5 nM; in test [4] it was 26 nM.

In the case of `CC#CCOc1ccc(S(=O)(=O)N2CCN(C(=O)CNC(=O)OC(C)(C)C)CC2C(=O)NO)cc1` (stereo not shown) [Example 229, {2-[4-(4-but-2-ynyloxy-Benzenesulfonyl)-3-hydroxycarbamoyl-piperazin-1-yl]-2-oxo-ethyl}-carbamic Acid tert-Butyl Ester], the IC50 came to 1010 nM in test [1], 322 nM in test [2], 64 nM in test [3] and 85 nM in test [4].

Take `CC#CCOc1ccc(S(=O)(=O)N(CC#CCN2CCN(C)CC2)C(C)C(=O)NO)cc1` (stereo not shown) [Example 135]: the IC50 in test [1] came out at 921 nM; in test [2], 142 nM; in test [3], 21 nM; in test [4] it was 66 nM.

`CC#CCOc1ccc(S(=O)(=O)N[C@@H](C(=O)NO)c2ccc(OCCNC(=O)OC(C)(C)C)cc2)cc1` [Example 199, tert-Butyl 2-{4-[(1R)-1-({[4-(2-Butynyloxy)phenyl]sulfonyl}amino)-2-(hydroxyamino)-2-oxoethyl]phenoxy}ethylcarbamate]: the IC50 in test [1] is roughly 10000 nM; in test [2], 862 nM; in test [3], 42 nM; in test [4] it was 139 nM.

As for `CC#CCOc1ccc(S(=O)(=O)N(C)C(C(=O)NO)c2ccc(OCCNC(=O)OC(C)(C)C)cc2)cc1` (stereo not shown) [Example 180, tert-Butyl 2-(4-[1-[{[4-(2-Butynyloxy)phenyl]sulfonyl}(methyl)amino]-2-(hydroxyamino)-2-oxoethyl]phenoxy}ethylcarbamate], the IC50 turned out to be 599 nM in test [1], 34 nM in test [2], 265 nM in test [3] and 9.3 nM in test [4].

For `CC#CCOc1ccc(S(=O)(=O)N2CC[S+]([O-])C(C)(C)C2C(=O)NO)cc1` (single isomer, unassigned) [Example 256], the IC50 in test [1] (Table 9) was determined as 43 nM; in test [2] (Table 9) it was 145 nM; in test [3] (Table 9), 25 nM; in test [4] (Table 9) it was 48 nM.

For `CC#CCOc1ccc(S(=O)(=O)N2CCN(C(=O)CC)CC2C(=O)NO)cc1` (stereo not shown) [Example 225, 1-(4-but-2-ynyloxy-Benzenesulfonyl)-4-propionyl-piperazine-2-carboxylic Acid Hydroxyamide], the IC50 in test [1] was determined as 1000 nM; in test [2] it was 727 nM; in test [3], 17 nM; in test [4] it was 230 nM.

As for `CC#CCOc1ccc(S(=O)(=O)N(Cc2cccnc2)[C@@H](C(=O)NO)C2CCCCC2)cc1` [Example 116, 2-[(4-but-2-ynyloxy-Benzenesulfonyl)-pyridin-3-ylmethyl-amino]-2-cyclohexyl-N-hydroxy-acetamide], the IC50 was found to be 218 nM in test [1], 336 nM in test [2], 204 nM in test [3] and 53 nM in test [4].

Consider `CC#CCOc1ccc(S(=O)(=O)N(C)C(C(=O)NO)c2ccc(OC)cc2)cc1` (stereo not shown) [Example 178, 2-[{[4-(2-Butynyloxy)phenyl]sulfonyl}(methyl)amino]-N-hydroxy-2-(4-methoxyphenyl)acetamide], for which the IC50 in test [1] amounted to 482 nM; in test [2], 43 nM; in test [3], 23 nM; in test [4] it was 14 nM.

With `CC#CCOc1ccc(S(=O)(=O)N2CC[S+]([O-])C(C)(C)C2C(=O)NO)cc1` (single isomer, unassigned) [Example 255], the IC50 was 46 nM in test [1] (Table 9), 29 nM in test [2] (Table 9), 24 nM in test [3] (Table 9) and 8.7 nM in test [4] (Table 9).

As for `CC#CCOc1ccc(S(=O)(=O)N(C)C(C(=O)NO)c2ccc(OCCN3CCCC3=O)cc2)cc1` (stereo not shown) [Example 184, 2-[{[4-(2-Butynyloxy)phenyl]sulfonyl}(methyl)amino]-N-hydroxy-2-{4-[2-(2-oxo-1-pyrrolidinyl)ethoxy]phenyl}acetamide], the IC50 is 434 nM in test [1], 55 nM in test [2], 35 nM in test [3] and 11 nM in test [4].

`CC#CCOc1ccc(S(=O)(=O)N(CC2CC2)C(C(=O)NO)C(C)C)cc1` (stereo not shown) [Example 112, 2-[(4-but-2-ynyloxy-Benzenesulfonyl)-cyclopropylmethyl-amino]-N-hydroxy-3-methyl-butyramide]: the IC50 in test [1] worked out at 189 nM; in test [2], 397 nM; in test [3], 57 nM; in test [4], 142 nM.

Consider `CC#CCOc1ccc(S(=O)(=O)N2CCN(C(=O)N3CCCC3)CC2C(=O)NO)cc1` (stereo not shown) [Example 217, 1-(4-but-2-ynyloxy-Benzenesulfonyl)-4-(pyrrolidine-1-carbonyl)-piperazine-2-carboxylic Acid Hydroxyamide], for which the IC50 amounted to 1250 nM in test [1], 209 nM in test [2], 28 nM in test [3] and 83 nM in test [4].

`CC#CCOc1ccc(S(=O)(=O)N(C)C(C(=O)NO)c2ccccc2)cc1` (stereo not shown) [Example 211, 2-[{[4-(2-Butynyloxy)phenyl]sulfonyl}(methyl)amino]-N-hydroxy-2-phenylacetamide]: the IC50 stood at 496 nM in test [1], 43 nM in test [2], 8 nM in test [3] and 20 nM in test [4].

A word on the IC50: it is the point on the concentration scale where inhibition reaches its midpoint.
